Laboratory results: patent US6437002B1, “Agent for preventing and treating skin diseases” (Showa Denko K.K., priority 1998, dated 2002)

Experiments:
[1] = test system: dorsum skin of hairless mouse; test: Test (A): skin permeability and ascorbic acid activity, H-type transverse diffusion cell; type: in vitro ADME; set-up: key: When an ascorbic acid transmitted through the skin was identified, the evaluation was “+”; when an ascorbic acid was not detected, the evaluation was “−”; When a peak on the order of a trace was confirmed, the evaluation was “+”; conditions: abraded hairless mouse skin, 37° C., 30 to 120 minutes
Protocol: The dorsum skin with corium of a 4- or 5-week-old hairless mouse was abraded and the skin abraded from the back of the hairless mouse was fixed in an H-type transverse diffusion cell. Then, 2 ml of DALBECCO PBS(−) was charged into the receiver-side cell and 2 ml of a specimen was charged into the donor-side cell. After incubation at 37° C. for from 30 to 120 minutes, 200 μl was sampled from the […] and 200 μl of DALBECCO PBS(−) was replenished. An ascorbic acid amount of the solution sampled was analyzed by the HPLC method described later in the Examples. When an ascorbic acid transmitted through the skin was detected and identified, the evaluation was “+” and when an ascorbic acid was not detected and identified, the evaluation was “−”. When a peak on the order of a trace was confirmed, the evaluation was “±”.
The dorsum skin with corium of a 4- or 5-week-old hairless mouse was abraded and the skin abraded from the back of the hairless mouse was fixed in an H-type transverse diffusion cell. Then, 2 ml of DALBECCO PBS(−) was charged into the receiver-side cell and 2 ml of a specimen was charged into the donor-side cell (in the case of an oil-soluble material, it was emulsion-dispersed in an ordinary manner by adding 2% of a surfactant Tween 80 (trademark)). After incubation at 37° C. for from 30 to 120 minutes, 200 μl was sampled from the […] and 200 μl of DALBECCO PBS (−) was replenished. An ascorbic acid amount of the solution sampled was analyzed by the HPLC method in the Examples. When an ascorbic acid transmitted through the skin was identified, the evaluation was “+” and when an ascorbic acid was not detected, the evaluation was “−” When a peak on the order of a trace was confirmed, the evaluation was […].

[2] = Test (B): durability (activity duration) on storage; type: physicochemical; conditions: 0.5% in water (oil-soluble: emulsion with 2% Tween 80), stored at 40° C. for one month
Protocol: An ascorbic acid derivative was dissolved in water to have a concentration of 0.5% (in the case of an oil-soluble SF-621 US material, it was emulsion-dispersed in an ordinary manner by adding 2% of a surfactant Tween 80 (trademark)) and stored at 40° C. for one month. Then the residual amount of the derivative was measured by the HPLC method described later in the Examples. When the residual ratio was 90% or more, the evaluation was “+” and when it was less than 90%, the evaluation was “−”.
An ascorbic acid derivative was dissolved in water to have a concentration of 0.5% (in the case of an oil-soluble material, it was emulsion-dispersed in an ordinary manner by adding 2% of a surfactant Tween 80 (trademark)) and stored at 40° C. for one month. Then the residual amount of the derivative was measured by the HPLC method. When the residual ratio was 90% or more, the evaluation was “+” and when it was less than 90%, the evaluation was “−”.

Row | Test (A): skin permeability and ascorbic acid activity (ascorbic acid transmitted through the skin, by HPLC) [1] | Compound | Test (B): durability (residual ratio of the derivative by HPLC) [2]
1 | − | O=C1O[C@H]([C@@H](O)CO)C(O)=C1OS(=O)(=O)[O-].[Na+] [Sodium L-ascorbic acid-2-sulfate, reference compound] | + (When the residual ratio was 90% or more, the evaluation was “+”)
2 | + | O=C1O[C@H]([C@@H](O)CO)C(O)=C1O[C@H]1O[C@H](CO)[C@@H](O)[C@H](O)[C@H]1O [L-Ascorbic acid-2-glucoside] | + (When the residual ratio was 90% or more, the evaluation was “+”)
3 |  | O=C1O[C@H]([C@@H](O)CO)C(O)=C1OP(=O)([O-])[O-].[Mg+2] [Magnesium L-ascorbic acid-2-phosphate] | + (When the residual ratio was 90% or more, the evaluation was “+”)
4 | − | Cc1c(C)c2c(c(C)c1OP(=O)(O)OC1=C(O)[C@@H]([C@@H](O)CO)OC1=O)CC[C@@](C)(CCC[C@H](C)CCC[C@H](C)CCCC(C)C)O2 [Ascorbic acid tocopherolphosphate diester, reference compound] | + (When the residual ratio was 90% or more, the evaluation was “+”)
5 | + | 2-Palmitoyloxy-L-ascorbic acid-2-phosphate | 

Row | Compound | Test (A): skin permeability and ascorbic acid activity (ascorbic acid transmitted through the skin, by HPLC) [1] | Test (B): durability (residual ratio of the derivative by HPLC) [2]
6 | O=C1O[C@H]([C@@H](O)CO)C(O)=C1OP(=O)([O-])[O-].[Na+].[Na+] [Sodium L-ascorbic acid-2-phosphate] | + | + (When the residual ratio was 90% or more, the evaluation was “+”)
7 | O=C1O[C@H]([C@@H](O)CO)C(O)=C1OP(=O)([O-])[O-].[K+].[K+] [Potassium L-ascorbic acid-2-phosphate] | + | + (When the residual ratio was 90% or more, the evaluation was “+”)
